Laboratory results reported in publication PMC6934085 (Science signaling, 2019).

Legend:
hNOP receptor [1] = molecular target: T1, hNOP receptor (Homo sapiens, UniProt P41146); assay type: cell-based
hNOP receptor [2] = molecular target: T1, hNOP receptor; assay type: cell-based; remark: listed apart in the source
NOP receptor [3] = molecular target: T2, NOP receptor (Mus musculus, UniProt P35377); assay type: cell-based
NOP receptor [4] = molecular target: T2, NOP receptor; assay: In vivo NOP receptor phosphorylation in brain of NOP-eGFP knock-in mice; details: SB 612111 30 mg/kg pretreatment 30 min, then AT-202 30 mg/kg
NOP receptor [5] = details: cited from earlier work

T1 sequence (P41146 whole entry): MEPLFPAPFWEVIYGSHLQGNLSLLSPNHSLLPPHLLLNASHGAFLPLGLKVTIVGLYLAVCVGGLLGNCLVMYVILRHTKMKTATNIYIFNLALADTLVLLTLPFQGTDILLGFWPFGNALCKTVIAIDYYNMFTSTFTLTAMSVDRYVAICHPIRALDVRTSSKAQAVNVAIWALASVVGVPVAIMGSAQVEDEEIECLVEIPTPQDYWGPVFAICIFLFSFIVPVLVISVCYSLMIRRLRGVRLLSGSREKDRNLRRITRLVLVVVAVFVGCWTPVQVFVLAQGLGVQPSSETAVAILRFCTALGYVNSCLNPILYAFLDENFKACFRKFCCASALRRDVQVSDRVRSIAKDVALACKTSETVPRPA
T2 sequence (P35377 whole entry): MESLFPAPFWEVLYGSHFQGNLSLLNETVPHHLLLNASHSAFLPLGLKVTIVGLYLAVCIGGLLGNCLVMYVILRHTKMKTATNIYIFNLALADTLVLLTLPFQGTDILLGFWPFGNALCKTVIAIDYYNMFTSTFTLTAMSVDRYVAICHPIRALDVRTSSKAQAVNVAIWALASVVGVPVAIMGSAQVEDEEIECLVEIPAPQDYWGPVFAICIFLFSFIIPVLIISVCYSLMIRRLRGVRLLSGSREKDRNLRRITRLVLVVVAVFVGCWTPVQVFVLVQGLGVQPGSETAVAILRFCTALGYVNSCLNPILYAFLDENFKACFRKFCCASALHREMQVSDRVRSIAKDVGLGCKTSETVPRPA

## CN1CCc2cc(Cl)c(O)cc2[C@@H](c2ccccc2)C1 [SCH23390]
hNOP receptor [1]
  Effect on N/OFQ-induced hyperpolarization: reversed the N/OFQ-evoked hyperpolarization

## C=C[C@@]1(C)CC(=O)[C@]2(O)[C@@]3(C)[C@@H](O)CCC(C)(C)[C@@H]3[C@H](O)[C@H](OC(C)=O)[C@@]2(C)O1 [Forskolin, forskolin]
hNOP receptor [2]
  NOP receptor phosphorylation by second messenger kinase activators: did not produce any detectable phosphorylation

## CC1(N2CCC(n3c([C@@H]4CCCNC4)nc4ccccc43)CC2)CCCCCCC1 [MCOPPB]
NOP receptor [3]
  NOP receptor internalization in ventral midbrain neurons: strong MCOPPB-induced NOP receptor internalization

## Cc1cccc2c1CC[C@H](CN1CCC(c3c(Cl)cccc3Cl)CC1)C[C@@H]2O [SB 612111, (−)-cis-1-methyl-7-[[4-(2,6-dichlorophenyl)piperidin-1-yl]methyl]-6,7,8,9-tetrahy dro-5H-benzocyclohepten-5-ol]
NOP receptor [4]
  Block of AT-202-induced NOP receptor phosphorylation in mouse brain: could be blocked
hNOP receptor [2]
  Inhibition of N/OFQ-induced NOP receptor phosphorylation: completely blocked N/OFQ-induced phosphorylation

## buprenorphine
hNOP receptor [1]
  Agonist activity in G protein signaling / GIRK channel activation: partial agonistic activity with a remarkably reduced maximal effect compared with N/OFQ
hNOP receptor [2]
  Agonist-induced NOP receptor phosphorylation at Ser346, Ser351 and Thr362/Ser363: complete lack of NOP receptor phosphorylation
NOP receptor [5]
  Agonist efficacy at the NOP receptor in cAMP inhibition assays: partial agonists
